Data from US7446127B2, “Chroman carboxylic acid derivatives for the treatment of diabetes and lipid disorders” (SK Holdings Co, Ltd., priority 2003, dated 2008).

Tests used:
[1] = test system: differentiated 3T3-L1 adipocytes; experiment: Glucose transport assay (2-deoxy-D-glucose uptake); format: cell-based; settings: 48 hr
Protocol: 3T3-L1 fibroblasts (American Type Culture Collection) were plated and grown for 2 days postconfluence in Dulbecco's modified Eagle's medium (DMEM; 4,500 mg/L glucose, HyClone) supplemented 10% FBS, 10 μg/mL penicillin and streptomycin in an atmosphere of 5% CO2 at 37° C. Adipocyte differentiation was then induced using standard protocol. After 48 hr, the differentiation medium was replaced with maintenance medium containing DMEM supplemented with 10% FBS. The maintenance medium was changed every 3 days until the cells were utilized for experimentation. Glucose transport activity was measured in the presence or absence of insulin and the protocol was modified from Kletzien, R F et al. (1992) Molecular Pharmacology 41:393-398. Briefly, differentiated 3T3-L1 adipocytes were incubated with vehicle (DMSO), insulin (100 nM) alone, test compound (50 μM) alone and a combination of insulin (100 nM)+test compound (50 μM) for 48 hr. Medium was changed twice a day in the presence of compound. Glucose uptake was measured using 2-Deoxy-D-[1−^3H] glucose as label after 90 min incubation with each compound. […] In the series of compounds, one of the best result was obtained with 7-[2-(5-methyl-2-phenyl-4-oxazolyl)-ethoxy]-chroman-3-carboxylic acid (Example 1).

db/db mice [2] = experiment: Efficacy test for blood glucose lowering (db/db mice); format: in vivo; settings: 30 mg/kg/d oral
Protocol: (§1) Mice used in this study were standard model of type II diabetes developed by Jackson Laboratories (Bar Harbor, Me.). Male, 8-week-old db/db mice were housed six per cage in hanging wire bottom cages with standard laboratory conditions. The mice had free access to normal chow (Purina Rodent Chow) and water. At the age of 11-12 weeks, mice were bled in the tail for glucose matching among the groups (n=6 per group). The grouped mice were then dosed orally with vehicle (CMC) or with compounds of formula I (30 mg/kg/d) for 7 days. Compound of formula I at 30 mg/kg/d was dosed as suspension in 0.5% CMC+0.2% Tween 80 in H2O. Fresh suspension was prepared for 8 days dosing and kept in a refrigerator. The suspension was administered by oral gavage daily in the morning. The control group received vehicle (dose 10 mL/kg). Blood glucose concentrations were monitored at basal and 3 hr post dose on day 4 and 8. For blood sampling, mice were placed in a restrainer and drop of blood was obtained by nick in the tip of the tail. Blood glucose concentrations were determined either by putting a drop of blood on a glucose strip for analysis by a glucometer or using a 10 μL plasma sample in a YSI (Yellow Spring Instruments, OH) analyzer. Results are expressed as absolute blood glucose concentrations (mg/dL) and % reduction that is achieved reduction relative to vehicle treated control group. Animals having more than 300 mg/dL of blood glucose were used for testing. Statistical significance (p<0.05) is given versus the appropriate sample in vehicle treated animals. On day 7, the mice were fasted overnight for 18 hrs and were bled in the tail for the glucose level checking then dosed with the testing compounds (30 mg/kg/d). After 2 hr, blood samples were taken and the rats were dosed with 10% glucose in water (10 ml/kg) orally and blood glucose was monitored at 15, 30, 60, 90 and 120 min after dosing. The blood samples were centrifuged and plasma samples were collected and analyzed for insulin, Tg and FFA.

db/db mice [3] = experiment: Oral Glucose Tolerance Test (OGTT) in db/db mice; format: in vivo; settings: 30 mg/kg/d for 9 days
Protocol: as §1, with “FFA. An Oral Glucose Tolerance Test (OGTT) was performed both in db/db mice and in high fat (HF) rats after dosing 30 mg/kg/d of compounds of Examples 1 and 2 for 9 days. For OGTT and ITT studies, Sprague-Dawley rats were prepared by feeding high fat (HF) diet (60% calorie from fat) for 6 weeks. Before the study, they were matched into groups on the basis of blood glucose levels.” for “FFA.”

high fat (HF) rats = experiment: Oral Glucose Tolerance Test (OGTT) in high fat (HF) rats; format: in vivo, Sprague-Dawley rats; settings: 30 mg/kg/d for 9 days
Protocol: (§2) An Oral Glucose Tolerance Test (OGTT) was performed both in db/db mice and in high fat (HF) rats after dosing 30 mg/kg/d of compounds of Examples 1 and 2 for 9 days. For OGTT and ITT studies, Sprague-Dawley rats were prepared by feeding high fat (HF) diet (60% calorie from fat) for 6 weeks. Before the study, they were matched into groups on the basis of blood glucose levels.

HF rat = experiment: Insulin tolerance test (ITT) in HF rat; format: in vivo, Sprague-Dawley rats; settings: 30 mg/kg oral, insulin 0.25 U/kg i.p. 2 hr later
Protocol: as §2, with “levels. Insulin tolerance test (ITT) was performed in HF rat which were prepared in the same manner with OGTT test animal. On the day of the study, rats were orally dosed with the testing compounds (30 mg/kg) and 2 hr later, rats were dosed with insulin (0.25 U/kg, i.p.) in 0.1% BSA solution in saline. Blood glucose of the rat was measured at 15, 30, 60, 120 min after dose.” for “levels.”

STZ rat = experiment: Blood glucose lowering effect in STZ rat; format: in vivo; settings: STZ rat (data not shown)
[4] = Solubility in dosing vehicle; format: physicochemical
Source text: It appeared that compounds of Examples 1 and 2 were not soluble in 0.5% CMC vehicle.

[5] = test system: differentiated 3T3-L1 adipocytes; experiment: Glucose transport assay (2-deoxy-D-glucose uptake); format: cell-based

With `Cc1oc(-c2ccccc2)nc1CCOc1ccc2c(c1)OCC(C(=O)O)C2` (centres unmarked) [Example 1, 7-[2-(5-Methyl-2-phenyl-4-oxazolyl)ethoxy]chromane-3-carboxylic acid] the “Fold Stimulation (50 μM) of 2-deoxy-D-glucose uptake, Insulin + Compound” value ([1]; 50 μM compound + 100 nM insulin) was 8.4 fold, the fold induction at 50 µM ([1]; Mus musculus, 50 μM compound alone, read-out: Fold Stimulation (50 μM) of 2-deoxy-D-glucose uptake, Compound only) was 1.3 and the “Fatty acid % reduction” value (db/db mice [2]; plasma) was −33.7%. For the same molecule, the Insulin % reduction (db/db mice [2]; plasma) was −62.4%, the “Glucose Max % efficacy” value (db/db mice [2]; suspension in 0.5% CMC + 0.2% Tween 80) was 80.0% and the “Glucose Observed value” (db/db mice [2]; suspension in 0.5% CMC + 0.2% Tween 80, control 261.2) was 132.2 mg/dL. The “AUC of Glucose in db/db, % reduction” value (db/db mice [3]) was 41.5%, the “AUC of Glucose in db/db, Observed value” (db/db mice [3]; control 40858) was 28870 mg/dl × 120 min and the “AUC of Glucose in high fat rat, % reduction” value (high fat (HF) rats) was 13.1%. For the same molecule, the “AUC of Glucose in high fat rat, Observed value” (high fat (HF) rats; control 14053) was 12206 mg/dl × 120 min, the “AUC of Glucose in high fat rat, % reduction” value (HF rat) was 27.7 (p < 0.02) % and the “AUC of Glucose in high fat rat, Observed value” (HF rat; control 13359) was 11014 mg/dl × 120 min. The “blood glucose lowering effect” value (STZ rat) was “did not reduce blood glucose”, the “solubility in 0.5% CMC vehicle” value [4] was “not soluble” and the “glucose uptake, dose dependence on compound” value ([5]; 0-100 μM compound in the presence of 100 nM insulin (FIG. 2)) was “dose-dependent manner”. For the same molecule, the “glucose uptake of insulin in presence of compound” value ([5]; 50 μM compound, 0.1-1,000 nM insulin (FIG. 3)) was “further enhanced glucose uptake of insulin in dose dependent manner” and the “stimulation of basal glucose uptake by compound per se” value ([5]; 3T3-L1 adipocytes, no insulin, 0.1 to 100 μM) was “did not stimulate the basal glucose uptake”.
